Data set [1] concerns the target Neurolysin, mitochondrial (Rattus norvegicus, UniProt P42676). Nature of the data set: Activation of recombinant rat Nln using MCA-Pro-Leu-Gly-Pro-D-Lys (DNP)-OH as substrate preincubated for 10 mins followed by substrate addition and measured after 20 mins by fluorescence based assay.
The target in data set [2] is Neurolysin, mitochondrial (Rattus norvegicus) (UniProt P42676). Nature of the data set: Activation of recombinant rat Nln assessed as maximal efficacy using MCA-Pro-Leu-Gly-Pro-D-Lys (DNP)-OH as substrate preincubated for 10 mins followed by substrate addition and measured after 20 mins by fluorescence based assay relative to control. The following applies: filed as activator, time 30.0 min.
Chain of Neurolysin, mitochondrial (Rattus norvegicus) (P42676 38-704 limits assumed): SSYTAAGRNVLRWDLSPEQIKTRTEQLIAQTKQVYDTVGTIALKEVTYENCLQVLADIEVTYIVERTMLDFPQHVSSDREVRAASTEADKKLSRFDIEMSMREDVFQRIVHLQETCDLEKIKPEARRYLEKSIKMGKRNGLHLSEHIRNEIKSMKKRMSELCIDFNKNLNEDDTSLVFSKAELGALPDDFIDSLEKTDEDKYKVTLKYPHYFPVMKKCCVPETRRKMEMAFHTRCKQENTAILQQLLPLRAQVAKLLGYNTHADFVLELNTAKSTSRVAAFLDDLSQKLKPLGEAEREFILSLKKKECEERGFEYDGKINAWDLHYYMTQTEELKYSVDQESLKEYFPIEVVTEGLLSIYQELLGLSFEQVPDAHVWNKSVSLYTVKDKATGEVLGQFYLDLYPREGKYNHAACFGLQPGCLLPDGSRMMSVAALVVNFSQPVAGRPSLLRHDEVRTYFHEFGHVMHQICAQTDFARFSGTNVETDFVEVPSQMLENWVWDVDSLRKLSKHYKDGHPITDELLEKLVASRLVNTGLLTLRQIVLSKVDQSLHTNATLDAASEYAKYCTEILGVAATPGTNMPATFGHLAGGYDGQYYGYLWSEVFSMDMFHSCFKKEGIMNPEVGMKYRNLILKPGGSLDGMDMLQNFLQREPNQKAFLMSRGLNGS

Data set [3] is described as follows: Permeability of compound in mouse BEND3 cells co-cultured with mouse primary astrocytes measured upto 120 mins by LC-MS/MS. Conditions: 2 h. Type of data set: ADME, cell-based.

Usually EC50 stands for the concentration at which the effect is half-maximal. In general, Emax refers to the greatest response seen or fitted, relative to the assay's reference.

Chain of Neurolysin, mitochondrial (P42676 whole entry): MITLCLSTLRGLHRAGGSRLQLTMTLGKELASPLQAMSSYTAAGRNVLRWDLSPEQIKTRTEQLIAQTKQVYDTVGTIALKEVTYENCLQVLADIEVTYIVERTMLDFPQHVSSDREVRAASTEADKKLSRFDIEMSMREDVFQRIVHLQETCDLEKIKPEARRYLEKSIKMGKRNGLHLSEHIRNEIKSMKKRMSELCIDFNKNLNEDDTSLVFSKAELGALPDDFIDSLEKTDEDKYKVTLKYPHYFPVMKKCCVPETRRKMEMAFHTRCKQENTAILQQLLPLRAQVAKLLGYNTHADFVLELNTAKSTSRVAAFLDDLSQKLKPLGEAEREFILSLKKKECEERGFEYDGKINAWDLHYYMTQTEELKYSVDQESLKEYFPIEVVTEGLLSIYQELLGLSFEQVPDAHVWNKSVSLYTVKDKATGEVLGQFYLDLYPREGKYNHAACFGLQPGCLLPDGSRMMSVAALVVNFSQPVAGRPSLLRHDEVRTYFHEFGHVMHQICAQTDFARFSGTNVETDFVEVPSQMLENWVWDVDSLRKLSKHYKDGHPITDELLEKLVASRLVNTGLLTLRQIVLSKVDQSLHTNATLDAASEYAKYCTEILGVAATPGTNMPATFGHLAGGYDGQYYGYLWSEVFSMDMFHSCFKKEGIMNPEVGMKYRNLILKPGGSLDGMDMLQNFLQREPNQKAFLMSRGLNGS

Take `N[C@H](Cc1c[nH]cn1)C(=O)Nc1cccc(C(F)(F)F)c1`: in data set [1], the EC50 was 22.8 µM. Besides, the Emax in data set [2] amounted to 362%.
In the same order, the values of `COc1ccc(NC(=O)[C@@H](N)Cc2c[nH]cn2)cc1` are 241 µM and 582%.
On to `COc1ccccc1NC(=O)[C@H](N)Cc1c[nH]cn1`, for which the EC50 in data set [1] was determined as 53.5 µM. In addition, the Emax in data set [2] stood at 428%.
In the same order, the values of `COc1ccc(NC(=O)[C@H](N)Cc2c[nH]cn2)cc1` are 214 µM and 540%.
In the same order, the values of `N[C@@H](Cc1c[nH]cn1)C(=O)Nc1cc(C(F)(F)F)cc(C(F)(F)F)c1` are 279 µM and 633%.
Regarding `COc1cccc(NC(=O)[C@@H](N)Cc2c[nH]cn2)c1`, in data set [1], the EC50 came to 105 µM. Moreover, in data set [2], the Emax was 454%.
On the same counts, the results for `N[C@H](Cc1c[nH]cn1)C(=O)Nc1ccc(F)cc1` are 36.1 µM and 403%.
For `N[C@@H](Cc1c[nH]cn1)C(=O)Nc1cc(F)cc(F)c1`, the EC50 in data set [1] was 90.6 µM. Also, the Emax in data set [2] turned out to be 431%.
On the same counts, the results for `N[C@H](Cc1c[nH]cn1)C(=O)Nc1cccc(F)c1` are 30.9 µM and 396%.
Take `N[C@@H](Cc1c[nH]cn1)C(=O)Nc1ccc(C(F)(F)F)cc1`: the EC50 in data set [1] came out at 32.2 µM. Besides, the Emax in data set [2] worked out at 335%.
On the same counts, the results for `COc1cc(NC(=O)[C@@H](N)Cc2c[nH]cn2)cc(OC)c1OC` are 117 µM and 436%.
As to `N[C@H](Cc1c[nH]cn1)C(=O)Nc1ccccc1F`, the EC50 in data set [1] was 78.2 µM. In addition, in data set [2], the Emax is 331%.
In the same order, the values of `N[C@@H](Cc1c[nH]cn1)C(=O)Nc1cccc(C(F)(F)F)c1` are 28.6 µM and 312%.
`N[C@H](Cc1c[nH]cn1)C(=O)Nc1ccc(C(F)(F)F)cc1`: in data set [1], the EC50 worked out at 15.6 µM. In addition, in data set [2], the maximal effect (Emax) was 325%. Further, the permeability result in data set [3] was “Permeable”.
Turning to `COc1ccccc1NC(=O)[C@@H](N)Cc1c[nH]cn1`, the EC50 in data set [1] turned out to be 45.1 µM. Also, the Emax in data set [2] is 426%.
Consider `COc1cc(NC(=O)[C@@H](N)Cc2c[nH]cn2)cc(OC)c1`, for which the EC50 in data set [1] was 52.1 µM. Besides, the Emax in data set [2] amounted to 463%. In addition, in data set [3], the permeability result is “Permeable”.
Turning to `N[C@@H](Cc1c[nH]cn1)C(=O)Nc1ccccc1F`, the EC50 in data set [1] is 37.5 µM. Moreover, in data set [2], the Emax stood at 268%.
On the same counts, the results for `N[C@@H](Cc1c[nH]cn1)C(=O)Nc1ccc(C(F)(F)F)cc1C(F)(F)F` are 25.2 µM and 368%.
In the same order, the values of `N[C@@H](Cc1c[nH]cn1)C(=O)Nc1c(F)cc(Br)cc1F` are 26.7 µM and 370%.
Consider `N[C@@H](Cc1c[nH]cn1)C(=O)Nc1cccc(F)c1`, for which, in data set [1], the EC50 worked out at 24.8 µM. Moreover, the maximum response (Emax) in data set [2] is 382%.
On the same counts, the results for `COc1cccc(NC(=O)[C@H](N)Cc2c[nH]cn2)c1` are 121 µM and 478%.
In the same order, the values of `N[C@@H](Cc1c[nH]cn1)C(=O)Nc1ccc(F)cc1` are 136 µM and 488%.

The values above are taken from ChEMBL document CHEMBL5120788, “Structure-activity relationship studies of functionalized aromatic peptidomimetics as neurolysin activators” (Bioorg Med Chem Lett, 2022).
